System: 422866-222-R5-J1-PDC complex spheroid viability
Experiment: Anticancer human tumor 422866-222-R5-J1-PDC patient-derived pancreatic adenocarcinoma cell line growth inhibition [POLQ]
Conditions: for IC50: curve of first compound; for viability, T/C: stronger effect = lower value
Outline: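 Complex spheroid viability model combining PDC tumour cells with endothelial (HUVEC) and MSC stromal cells. Novobiocin, ART-558 or RP6685 were tested singly and in combination with standard and investigational anticancer drugs. Each was titrated in half-log steps from near clinical Cmax, or from 10 microM where Cmax was unknown.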

[1] = second compound 0.0316 µM, first compound 0.0316 µM
[2] = second compound 0.0316 µM, first compound 0.1 µM
[3] = second compound 0.0316 µM, first compound 0.316 µM
[4] = second compound 0.0316 µM, first compound 1 µM
[5] = second compound 0.1 µM, first compound 0.0316 µM
[6] = second compound 0.1 µM, first compound 0.1 µM
[7] = second compound 0.1 µM, first compound 0.316 µM
[8] = second compound 0.1 µM, first compound 1 µM
[9] = second compound 0.316 µM, first compound 0.0316 µM
[10] = second compound 0.316 µM, first compound 0.1 µM
[11] = second compound 0.316 µM, first compound 0.316 µM
[12] = second compound 0.316 µM, first compound 1 µM
[13] = second compound 1 µM, first compound 0.0316 µM
[14] = second compound 1 µM, first compound 0.1 µM
[15] = second compound 1 µM, first compound 0.316 µM
[16] = second compound 1 µM, first compound 1 µM
[17] = second compound 3.16 µM, first compound 0.0316 µM
[18] = second compound 3.16 µM, first compound 0.1 µM
[19] = second compound 3.16 µM, first compound 0.316 µM
[20] = second compound 3.16 µM, first compound 1 µM
[21] = second compound 10 µM, first compound 0.0316 µM
[22] = second compound 10 µM, first compound 0.1 µM
[23] = second compound 10 µM, first compound 0.316 µM
[24] = second compound 10 µM, first compound 1 µM
[25] = second compound 0.0316 µM, first compound 3.16 µM
[26] = second compound 0.0316 µM, first compound 10 µM
[27] = second compound 0.1 µM, first compound 3.16 µM
[28] = second compound 0.1 µM, first compound 10 µM
[29] = second compound 0.316 µM, first compound 3.16 µM
[30] = second compound 0.316 µM, first compound 10 µM
[31] = second compound 1 µM, first compound 3.16 µM
[32] = second compound 1 µM, first compound 10 µM
[33] = second compound 3.16 µM, first compound 3.16 µM
[34] = second compound 3.16 µM, first compound 10 µM
[35] = second compound 10 µM, first compound 3.16 µM
[36] = second compound 10 µM, first compound 10 µM
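Further: spheroids exposed to compounds for one week before readout.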
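Wherever viability, T/C is given: percent of DMSO vehicle wells luminescence so 100% = untreated viability.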

`C=CCn1c(=O)c2cnc(Nc3ccc(N4CCN(C)CC4)cc3)nc2n1-c1cccc(C(C)(C)O)n1` + Cc1cccc(N(C)C(=O)C2C(O)CCN2c2nc(C)cc(C(F)(F)F)c2C#N)c1 showed an IC50 (second compound 0.0316 µM) of 298 nM, an IC50 (second compound 0.1 µM) of 289 nM and an IC50 (second compound 0.316 µM) of 299 nM. The IC50 (second compound 1 µM) was 257 nM, the IC50 (second compound 3.16 µM) was 423 nM and the IC50 (second compound 10 µM) was 277 nM. For the same molecule, the viability, T/C (second compound 0.0316 µM, first compound 0.00316 µM) was 107%, the viability, T/C (second compound 0.0316 µM, first compound 0.01 µM) was 96.1% and the viability, T/C [1] was 110%. It also gave a viability, T/C [2] of 89.1%, a viability, T/C [3] of 48.4% and a viability, T/C [4] of 33.3%. It also gave a viability, T/C (second compound 0.1 µM, first compound 0.00316 µM) of 93%, a viability, T/C (second compound 0.1 µM, first compound 0.01 µM) of 93.8% and a viability, T/C [5] of 101%. It also gave a viability, T/C [6] of 85.8%, a viability, T/C [7] of 47.1% and a viability, T/C [8] of 35.1%. For the same molecule, the viability, T/C (second compound 0.316 µM, first compound 0.00316 µM) was 108%, the viability, T/C (second compound 0.316 µM, first compound 0.01 µM) was 97.3% and the viability, T/C [9] was 105%. The viability, T/C [10] was 97.1%, the viability, T/C [11] was 47.5% and the viability, T/C [12] was 31.3%. It also gave a viability, T/C (second compound 1 µM, first compound 0.00316 µM) of 110%, a viability, T/C (second compound 1 µM, first compound 0.01 µM) of 85.1% and a viability, T/C [13] of 104%. For the same molecule, the viability, T/C [14] was 83.8%, the viability, T/C [15] was 42.8% and the viability, T/C [16] was 32.3%. It also gave a viability, T/C (second compound 3.16 µM, first compound 0.00316 µM) of 98.4%, a viability, T/C (second compound 3.16 µM, first compound 0.01 µM) of 87.2% and a viability, T/C [17] of 91.6%. It also gave a viability, T/C [18] of 100%, a viability, T/C [19] of 54.8% and a viability, T/C [20] of 35.7%. The viability, T/C (second compound 10 µM, first compound 0.00316 µM) was 104%, the viability, T/C (second compound 10 µM, first compound 0.01 µM) was 95.8% and the viability, T/C [21] was 97.3%. It also gave a viability, T/C [22] of 75.3%, a viability, T/C [23] of 46.6% and a viability, T/C [24] of 40.4%.

In the case of `CNCc1ccc(-c2[nH]c3cc(F)cc4c3c2CCNC4=O)cc1` + Cc1cccc(N(C)C(=O)C2C(O)CCN2c2nc(C)cc(C(F)(F)F)c2C#N)c1, the IC50 (second compound 0.0316 µM) is reported as > 10000 nM, the IC50 (second compound 0.1 µM) is reported as > 10000 nM and the IC50 (second compound 0.316 µM) is reported as > 10000 nM. The IC50 (second compound 1 µM) was > 10000 nM, the IC50 (second compound 3.16 µM) was > 10000 nM and the IC50 (second compound 10 µM) was > 10000 nM. For the same molecule, the viability, T/C [1] was 105%, the viability, T/C [2] was 88.9% and the viability, T/C [3] was 91.2%. The viability, T/C [4] was 99.3%, the viability, T/C [25] was 89.6% and the viability, T/C [26] was 85.5%. It also gave a viability, T/C [5] of 94.8%, a viability, T/C [6] of 86.7% and a viability, T/C [7] of 85.6%. The viability, T/C [8] was 86%, the viability, T/C [27] was 101% and the viability, T/C [28] was 108%. The viability, T/C [9] was 88.3%, the viability, T/C [10] was 97.1% and the viability, T/C [11] was 88%. For the same molecule, the viability, T/C [12] was 85%, the viability, T/C [29] was 80.9% and the viability, T/C [30] was 89.6%. The viability, T/C [13] was 103%, the viability, T/C [14] was 85.6% and the viability, T/C [15] was 93.3%. The viability, T/C [16] was 85.3%, the viability, T/C [31] was 86.7% and the viability, T/C [32] was 89.7%. The viability, T/C [17] was 96.4%, the viability, T/C [18] was 83.9% and the viability, T/C [19] was 87.6%. For the same molecule, the viability, T/C [20] was 80.8%, the viability, T/C [33] was 79.8% and the viability, T/C [34] was 87.3%. For the same molecule, the viability, T/C [21] was 102%, the viability, T/C [22] was 107% and the viability, T/C [23] was 88%. The viability, T/C [24] was 76.6%, the viability, T/C [35] was 85.8% and the viability, T/C [36] was 67.1%.

`Nc1ccn(C2OC(CO)C(O)C2(F)F)c(=O)n1` (stereo not drawn) + Cc1cccc(N(C)C(=O)C2C(O)CCN2c2nc(C)cc(C(F)(F)F)c2C#N)c1 gave an IC50 (second compound 0.0316 µM) of 98.9 nM, an IC50 (second compound 0.1 µM) of 76.6 nM and an IC50 (second compound 0.316 µM) of 82.4 nM. It also gave an IC50 (second compound 1 µM) of 119 nM, an IC50 (second compound 3.16 µM) of 154 nM and an IC50 (second compound 10 µM) of 120 nM. For the same molecule, the viability, T/C [1] was 77.9%, the viability, T/C [2] was 50.4% and the viability, T/C [3] was 40.4%. The viability, T/C [4] was 36.1%, the viability, T/C [25] was 36.1% and the viability, T/C [26] was 42.9%. The viability, T/C [5] was 68.8%, the viability, T/C [6] was 43.2% and the viability, T/C [7] was 40.5%. For the same molecule, the viability, T/C [8] was 38.6%, the viability, T/C [27] was 35.5% and the viability, T/C [28] was 35.4%. For the same molecule, the viability, T/C [9] was 69%, the viability, T/C [10] was 45.3% and the viability, T/C [11] was 40.3%. It also gave a viability, T/C [12] of 38.1%, a viability, T/C [29] of 35% and a viability, T/C [30] of 34.8%. It also gave a viability, T/C [13] of 68.7%, a viability, T/C [14] of 51.6% and a viability, T/C [15] of 41.4%. The viability, T/C [16] was 37.3%, the viability, T/C [31] was 38.6% and the viability, T/C [32] was 40.2%. It also gave a viability, T/C [17] of 83.7%, a viability, T/C [18] of 54.2% and a viability, T/C [19] of 41.9%. The viability, T/C [20] was 43.2%, the viability, T/C [33] was 37.8% and the viability, T/C [34] was 38%. It also gave a viability, T/C [21] of 68%, a viability, T/C [22] of 51.9% and a viability, T/C [23] of 45.2%. It also gave a viability, T/C [24] of 39.9%, a viability, T/C [35] of 38.9% and a viability, T/C [36] of 48.5%.

`O=C(c1cc(Cc2n[nH]c(=O)c3ccccc23)ccc1F)N1CCN(C(=O)C2CC2)CC1` + Cc1cccc(N(C)C(=O)C2C(O)CCN2c2nc(C)cc(C(F)(F)F)c2C#N)c1 was tested, and the IC50 (second compound 0.0316 µM) was > 10000 nM, the IC50 (second compound 0.1 µM) was > 10000 nM and the IC50 (second compound 0.316 µM) was > 10000 nM. For the same molecule, the IC50 (second compound 1 µM) was > 10000 nM, the IC50 (second compound 3.16 µM) was > 10000 nM and the IC50 (second compound 10 µM) was > 10000 nM. For the same molecule, the viability, T/C [1] was 87.5%, the viability, T/C [2] was 103% and the viability, T/C [3] was 89.9%. It also gave a viability, T/C [4] of 92.9%, a viability, T/C [25] of 89.7% and a viability, T/C [26] of 68.2%. For the same molecule, the viability, T/C [5] was 95.3%, the viability, T/C [6] was 104% and the viability, T/C [7] was 99%. The viability, T/C [8] was 87.4%, the viability, T/C [27] was 87.5% and the viability, T/C [28] was 81.7%. The viability, T/C [9] was 117%, the viability, T/C [10] was 95.9% and the viability, T/C [11] was 107%. For the same molecule, the viability, T/C [12] was 97.6%, the viability, T/C [29] was 97.5% and the viability, T/C [30] was 67.3%. The viability, T/C [13] was 96.2%, the viability, T/C [14] was 94.4% and the viability, T/C [15] was 86%. It also gave a viability, T/C [16] of 90.5%, a viability, T/C [31] of 82.2% and a viability, T/C [32] of 68%. It also gave a viability, T/C [17] of 87.3%, a viability, T/C [18] of 104% and a viability, T/C [19] of 104%. The viability, T/C [20] was 107%, the viability, T/C [33] was 86.1% and the viability, T/C [34] was 68%. It also gave a viability, T/C [21] of 104%, a viability, T/C [22] of 107% and a viability, T/C [23] of 97.7%. The viability, T/C [24] was 89.8%, the viability, T/C [35] was 80.3% and the viability, T/C [36] was 76.4%.
